# Measurements published in the supplement of paper PMC10307832.
# Experiments:
# Test in all cases: relative viability (nuclei count vs DMSO), 5 days (fraction); higher = more cells survive
# [1] = compound: Cc1ccc(Nc2nccc(N(C)c3ccc4c(C)n(C)nc4c3)n2)cc1S(N)(=O)=O [Pazopanib] + CC(=O)c1c(C)c2cnc(Nc3ccc(N4CCNCC4)cn3)nc2n(C2CCCC2)c1=O [Palbociclib] (partner 0.5 µM)
# How it was run: (§1)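 Relative viability equals treated-well nuclei counts divided by vehicle-well nuclei counts. Counts came from 4× images of lung cancer cell lines grown in 1536-well plates for 5 days after pin-tool dosing on the day after seeding. Dosing used one drug alone or a fixed anchor-drug dose plus five library-drug doses (not always all listed) in √10 steps, and values are medians of duplicate plates.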
# [2] = compound: Cc1ccc(Nc2nccc(N(C)c3ccc4c(C)n(C)nc4c3)n2)cc1S(N)(=O)=O [Pazopanib] + N=C(N)NC(=N)NCCc1ccccc1 [Phenformin] (partner 250 µM)
# How it was run: as §1
# [3] = compound: Cc1ccc(Nc2nccc(N(C)c3ccc4c(C)n(C)nc4c3)n2)cc1S(N)(=O)=O [Pazopanib] + Cc1cc(Nc2cc(N3CCN(C)CC3)nc(Sc3ccc(NC(=O)C4CC4)cc3)n2)n[nH]1 [Tozasertib] (partner 0.1 µM)
# How it was run: as §1
# [4] = compound: Cc1ccc(Nc2nccc(N(C)c3ccc4c(C)n(C)nc4c3)n2)cc1S(N)(=O)=O [Pazopanib] + Cc1nc(NC(=O)N2CCC[C@H]2C(N)=O)sc1-c1ccnc(C(C)(C)C(F)(F)F)c1 [Alpelisib] (partner 2 µM)
# How it was run: as §1
Cell Line,relative viability ([1]; first compound 0.01 µM),relative viability ([1]; first compound 0.03162 µM),relative viability ([1]; first compound 0.1 µM),relative viability ([1]; first compound 0.3162 µM),relative viability ([1]; first compound 1 µM),relative viability ([2]; first compound 0.01 µM),relative viability ([2]; first compound 0.03162 µM),relative viability ([2]; first compound 0.1 µM),relative viability ([2]; first compound 0.3162 µM),relative viability ([2]; first compound 1 µM),relative viability ([3]; first compound 0.01 µM),relative viability ([3]; first compound 0.03162 µM),relative viability ([3]; first compound 0.1 µM),relative viability ([3]; first compound 0.3162 µM),relative viability ([3]; first compound 1 µM),relative viability ([4]; first compound 0.01 µM),relative viability ([4]; first compound 0.03162 µM),relative viability ([4]; first compound 0.1 µM),relative viability ([4]; first compound 0.3162 µM),relative viability ([4]; first compound 1 µM)
201T,0.332,0.356,0.343,0.37,0.412,0.444,0.425,0.438,0.455,0.462,0.961,1,0.961,0.908,0.926,0.959,1.06,1.02,0.998,1.05
A549,,,,,,,0.169,0.178,0.142,0.18,,,,,,0.798,0.685,0.828,0.746,1.01
A-427,0.536,0.565,0.476,0.554,0.526,0.309,0.4,0.286,0.332,0.288,0.183,0.207,0.207,0.217,0.186,1.07,1.13,1.09,1.06,1.03
ABC-1,0.407,0.799,0.788,1.13,0.784,0.23,0.242,,0.196,0.269,0.182,0.174,,0.151,0.19,0.859,1.1,0.984,1.1,1.03
BEN,0.447,0.467,0.498,0.506,0.482,,0.281,0.288,0.266,0.238,0.481,0.463,0.582,0.516,0.482,0.845,1.04,1.1,1.02,0.988
CAL-12T,0.487,0.687,0.348,0.486,0.577,0.595,0.616,0.544,0.664,0.581,0.247,0.327,0.312,0.297,0.294,1.21,1.32,1.11,1.35,1.27
COR-L23,0.297,0.323,0.353,0.316,0.317,0.44,0.459,0.41,0.463,0.493,0.236,0.173,0.202,0.214,0.152,0.752,0.957,0.993,0.925,0.717
COR-L 105,0.364,0.363,0.413,0.437,0.438,0.446,0.553,0.52,0.724,0.636,0.341,0.345,0.356,0.334,0.382,0.981,1.03,1.04,1.07,1.04
Calu-6,,,,,,,,,,,,,,,,0.973,1.09,1.04,0.956,0.99
ChaGo-K-1,0.949,0.927,0.973,0.927,0.873,0.474,0.428,0.535,0.547,0.495,0.21,0.221,0.241,0.257,0.255,,,,,
EBC-1,,,,,,,,,,,,,,,,0.914,0.907,0.913,0.914,1
EKVX,0.378,0.461,0.395,0.368,0.423,0.227,0.224,0.207,0.225,0.234,0.355,0.383,0.435,0.422,0.448,0.726,0.887,0.923,0.896,1.03
EMC-BAC-2,,0.522,0.488,0.511,0.492,,0.513,0.498,0.536,0.537,,0.302,0.302,0.226,0.278,0.702,0.764,0.808,0.767,0.747
EPLC-272H,,0.366,0.304,0.334,0.409,,0.311,0.308,0.347,0.392,,0.352,0.167,0.21,0.241,0.734,0.966,1,0.991,0.804
H3255,0.314,0.315,0.349,0.328,0.361,0.298,0.33,0.365,0.306,0.367,0.489,0.629,0.986,0.656,0.734,0.612,0.743,0.833,0.695,0.741
HARA,0.238,0.255,0.295,0.254,0.295,0.43,0.363,0.486,0.467,0.479,0.09,0.119,0.603,0.0772,0.0838,0.82,0.779,0.846,0.818,0.982
HCC-15,0.7,0.708,0.729,0.752,0.788,0.476,0.507,0.498,0.519,0.505,0.435,0.502,0.411,0.394,0.37,0.788,0.931,0.885,0.909,0.986
HCC-44,0.921,0.932,0.943,0.982,0.948,0.216,0.213,0.256,0.234,0.213,0.872,0.913,0.926,0.843,0.78,0.664,0.806,0.766,0.74,0.793
HCC-78,0.465,0.511,0.4,0.462,0.432,0.531,0.696,0.626,0.635,0.622,0.334,0.429,0.472,0.517,0.415,0.284,0.406,0.3,0.35,0.388
HCC-366,0.36,0.422,0.449,0.386,0.353,0.566,0.642,0.547,0.608,0.638,0.124,0.132,0.0845,0.163,0.068,0.33,0.37,0.54,0.444,0.454

Cell Line,relative viability ([1]; first compound 0.01 µM),relative viability ([1]; first compound 0.03162 µM),relative viability ([1]; first compound 0.1 µM),relative viability ([1]; first compound 0.3162 µM),relative viability ([1]; first compound 1 µM),relative viability ([2]; first compound 0.01 µM),relative viability ([2]; first compound 0.03162 µM),relative viability ([2]; first compound 0.1 µM),relative viability ([2]; first compound 0.3162 µM),relative viability ([2]; first compound 1 µM),relative viability ([3]; first compound 0.01 µM),relative viability ([3]; first compound 0.03162 µM),relative viability ([3]; first compound 0.1 µM),relative viability ([3]; first compound 0.3162 µM),relative viability ([3]; first compound 1 µM),relative viability ([4]; first compound 0.01 µM),relative viability ([4]; first compound 0.03162 µM),relative viability ([4]; first compound 0.1 µM),relative viability ([4]; first compound 0.3162 µM),relative viability ([4]; first compound 1 µM)
HCC-827,0.558,0.456,0.516,0.444,0.471,0.46,0.466,0.374,0.426,0.414,0.436,0.44,0.42,0.414,0.433,0.949,0.943,1.02,0.944,1.01
HOP-62,0.436,0.472,0.424,0.493,0.46,0.654,0.627,0.734,0.673,0.665,0.366,0.388,0.307,0.431,0.286,0.68,1,,1.23,1.07
IA-LM,,,,,,,,,,,,,,,,0.665,0.856,0.876,0.669,0.509
LC-2-ad,0.552,0.459,0.56,0.45,0.487,0.618,0.649,0.584,0.689,0.685,0.469,0.444,0.516,0.467,0.471,0.844,0.884,0.916,0.866,0.891
LCLC-97TM1,,0.202,0.212,0.205,0.264,0.242,0.419,0.389,0.43,0.452,0.222,0.221,0.185,0.195,0.166,,0.236,0.272,0.234,0.243
LCLC-103H,0.409,0.517,0.495,0.439,0.5,0.247,0.338,0.344,0.344,0.342,0.456,0.464,0.46,0.467,0.479,0.782,0.823,1.03,0.973,1.06
LK-2,0.615,0.803,0.69,0.709,0.729,,0.449,0.639,0.594,0.301,,0.178,0.201,0.169,0.174,0.816,0.996,1.03,1.05,0.843
LOU-NH91,0.511,0.502,0.564,0.538,0.547,0.635,0.731,0.605,0.751,0.731,0.647,0.664,0.749,0.781,0.698,0.754,0.729,0.774,0.816,0.746
LU99A,,0.39,0.447,0.444,0.416,0.725,0.943,0.796,0.923,0.945,0.272,0.3,0.277,0.262,0.233,0.428,0.505,0.416,0.517,0.544
LXF-289,0.591,0.581,0.629,0.571,0.598,0.563,0.554,0.507,0.533,0.525,0.223,0.213,0.189,0.189,0.175,1.06,1.04,1.02,1.03,1.09
NCI-H522,0.973,0.97,1.05,0.887,0.883,0.532,0.618,0.71,0.7,0.65,0.568,0.454,0.493,0.646,0.58,,,,,
NCI-H596,,,,,,,0.916,0.732,0.879,0.963,,0.942,0.856,0.936,0.761,0.473,0.479,0.487,0.457,0.513
NCI-H1299,,,,,,,,,,,,,,,,1.07,0.976,1.12,1,1.06
NCI-H1563,,,,,,0.64,0.664,0.673,0.722,0.758,,,,,,0.902,0.868,0.978,0.935,0.929
NCI-H1648,,,0.229,0.281,0.279,,,,,,0.387,0.57,0.398,0.459,0.476,,,,,
NCI-H1650,0.333,0.433,0.375,0.349,0.393,0.405,0.559,0.418,0.537,0.464,0.47,0.382,0.443,0.539,0.312,,,,,
NCI-H1703,,,,,,,,,,,,,,,,0.338,0.293,0.216,0.279,0.278
NCI-H1792,,0.632,0.598,0.649,0.71,,0.308,,0.348,0.31,,,,,,,0.703,0.748,0.69,0.69
NCI-H2342,0.538,0.501,0.496,0.489,0.515,0.501,0.635,0.538,0.572,0.569,0.481,0.554,0.544,0.496,0.388,,,,,
SW 900,0.463,0.636,,0.65,0.595,0.532,0.628,0.398,0.593,0.689,0.556,0.443,0.495,0.578,0.53,,,,,
